# Experimental data: US4812162A, “Indole derivatives and their use as fungicides, insecticides and pesticides” (Imperial Chemical Industries PLC, priority 1986, dated 1989)
# What was measured:
# Erysiphe graminis = assay: fungicidal activity against foliar fungal diseases of plants, Erysiphe graminis (barley); format: in vivo; conditions: 100 ppm foliar spray plus root drench ca. 40 ppm a.i./dry soil, inoculated 24 hours before treatment
# Puccinia recondita = assay: fungicidal activity against foliar fungal diseases of plants, Puccinia recondita (wheat); format: in vivo; conditions: 100 ppm foliar spray plus root drench ca. 40 ppm a.i./dry soil, 1-2 days before inoculation
# Phytophthora infestans = format: in vivo; conditions: 100 ppm foliar spray plus root drench ca. 40 ppm a.i./dry soil, 1-2 days before inoculation
# Venturia inaequalis = assay: fungicidal activity against foliar fungal diseases of plants, Venturia inaequalis (apple); format: in vivo; conditions: 100 ppm foliar spray plus root drench ca. 40 ppm a.i./dry soil, 1-2 days before inoculation
# Cercospora arachidicola = assay: fungicidal activity against foliar fungal diseases of plants, Cercospora arachidicola (peanut); format: in vivo; conditions: 100 ppm foliar spray plus root drench ca. 40 ppm a.i./dry soil, 1-2 days before inoculation
# Plasmorpara viticola = assay: fungicidal activity against foliar fungal diseases of plants, Plasmorpara viticola (vine); format: in vivo; conditions: 100 ppm foliar spray plus root drench ca. 40 ppm a.i./dry soil, 1-2 days before inoculation
# Pyricularia oryzae = format: in vivo; conditions: 100 ppm foliar spray plus root drench ca. 40 ppm a.i./dry soil, 1-2 days before inoculation
# Maize = assay: plant growth regulating, whole plant screen, maize; format: in vivo, Maize (Earliking); conditions: maize (MZ); 4000 ppm (4 kg/ha); after 2-6 weeks
# Experimental: (§1) This Example illustrates the plant growth regulating properties of compounds 1 and 2 when tested on a whole plant screen against various species of plant. The plant species are identified in Table IV with the leaf stage at which they were sprayed.
# (§2) A formulation of each chemical was applied at 4000 ppm (4 kg/ha in a 1000 l/ha field volume) using a tracksprayer and a SS8004E (Teejet) nozzle.
# (§3) After spraying, the plants were grown in a glasshouse with 25° C. day/22° C. night temperatures. Supplementary lighting was supplied when necessary to provide an average photoperiod of 16 hours (14 hours minimum).
# (§4) After 2-6 weeks in the glasshouse, depending on species and time of year, the plants were visually assessed for morphological characteristics against a control plant sprayed with a blank formulation.
# Tomato = assay: plant growth regulating, whole plant screen, tomato; format: in vivo, Tomato (Ailsa Craig); conditions: tomato (TO); 4000 ppm (4 kg/ha); after 2-6 weeks
# Experimental: as §1, §2, §3, §4
# [1] = system: Meloidogyne incognita (tomato root knot eelworm - larvae); assay: nematode test, residual, Meloidogyne incognita larvae (MI); format: in vivo; conditions: 250 ppm, semi in-vitro, 7 days
# Source text: (§5) "SYNPERONIC" is a Registered Trade Mark.
# MI Meloidogyne incognita
# [2] = system: Musca domestica (houseflies - adults); assay: knockdown properties against Musca domestica (MDk); format: in vivo; conditions: 2000 ppm sprayed directly; inverted cup; knockdown at 15 minutes, mortality at 48 hours; 2 days
# Experimental: A sample of compound 1 was diluted with 2 mls acetone and made up of a 2000 ppm solution with 0.1% aqueous synperonic solution. The solution (1 ml) was then sprayed directly onto twenty mixed sex houseflies held in a drinking cup. Immediately after spraying the cups were inverted and left to dry. An assessment of knockdown was made when the cups were righted 15 minutes later. The flies were then provided with a 10% sucrose solution on a cotton wool pad, and held for 48 hours in a holding room conditioned at 25° C. and 65% relative humidity before a mortality assessment was made.
# [3] = system: Diabrotica balteata (rootworm larvae); assay: insecticidal properties, residual test, Diabrotica balteata (DB); format: in vivo; conditions: 500 ppm, filter paper/maize seed, 3 days
# Source text: as §5
# [4] = system: Chilo partellus (maize and sorghum stem borers - larvae); assay: insecticidal properties, residual test, Chilo partellus larvae (CPA); conditions: 500 ppm, oilseed rape, 3 days
# Experimental: The activity of the compound was determined using insect, mite and nematode pests. The compound was used in the form of a liquid preparation containing 500 parts per million (ppm) by weight of the compound except for the test on Meloidogyne incognita when a liquid preparation of 250 ppm by weight was used. The preparation was made by dissolving the compound in acetone and diluting the solution with water containing 0.1% by weight of a wetting agent sold under the trade name "SYNPERONIC" NX until the liquid preparation contained the required concentration of the product.
# The test procedure adopted with regard to each pest was basically the same and comprised supporting a number of the pests on a medium which was usually a host plant or a foodstuff on which the pests feed, and treating either or both the pests and the medium with the preparation. The mortality of the pests was then assessed at periods usually varying from one to seven days after the treatment.
# The results of the tests are given in Table VII as a grading of mortality designated as 9, 5 or 0 wherein 9 indicates 80-100% mortality, 5 indicates 50-79% mortality and 0 indicates less than 50% mortality.
# [5] = system: Heliothis virescens (tobacco budworm - larvae); assay: insecticidal properties, residual test, Heliothis virescens larvae (HV); format: in vivo; conditions: 500 ppm, cotton leaf, 3 days
# Source text: as §5
# Rice = assay: plant growth regulating, whole plant screen, rice; format: in vivo, Rice (Ishikari); conditions: rice (RC); 4000 ppm (4 kg/ha); after 2-6 weeks
# Experimental: as §1, §2, §3, §4
# [6] = system: Tetranychus urticae (spider mites - adults); assay: insecticidal properties, contact test, Tetranychus urticae adults (TUa); format: in vivo; conditions: 500 ppm, French bean leaf, 3 days
# Source text: as §5
# Apple = assay: plant growth regulating, whole plant screen, apple; format: in vivo, Apple (Red Delicious); conditions: apple (AP); 4000 ppm (4 kg/ha); after 2-6 weeks
# Experimental: as §1, §2, §3, §4
# [7] = system: Tetranychus urticae (spider mites - ova); assay: insecticidal properties, contact test, Tetranychus urticae ova (TUe); format: in vivo; conditions: 500 ppm, French bean leaf, 6 days
# Source text: as §5
# [8] = system: Nilaparvata lugens (brown plant hopper - nymphs); assay: insecticidal properties, contact test, Nilaparvata lugens nymphs (NL); format: in vivo; conditions: 500 ppm, rice plant, 3 days
# Source text: as §5
# Myzus persicae (aphids) = assay: insecticidal properties, contact test, Myzus persicae (MP); format: in vivo; conditions: 500 ppm, Chinese Cabbage leaf, 3 days
# Source text: as §5
# [9] = system: Blattella germanica (cockroach nymphs); assay: insecticidal properties, residual test, Blattella germanica nymphs (BG); format: in vivo; conditions: 500 ppm, plastic pot, 3 days
# Source text: as §5
# [10] = system: Musca domestica (houseflies - adults); assay: insecticidal properties, contact test, Musca domestica adults (MDa); format: in vivo; conditions: 500 ppm, cotton wool/sugar, 1 day
# Source text: as §5
SMILES,"disease control, ERYSIPHE GRAMINIS (BARLEY) (Erysiphe graminis)","disease control, PUCCINIA RECONDITA (WHEAT) (Puccinia recondita)","disease control, PH[…] (TOMATO) (Phytophthora infestans)","disease control, VENTURIA INAEQUALIS (APPLE) (Venturia inaequalis)","disease control, CERCOSPORA ARACHIDICOLA (PEANUT) (Cercospora arachidicola)","disease control, PLASMORPARA VITICOLA (VINE) (Plasmorpara viticola)","disease control, P[…] (RICE) (Pyricularia oryzae)",other results
CO/C=C(/C(=O)OC)n1ccc2ccc(I)cc21 [Compound 8],4,4,4,4,4,4,–,–
"CO/C=C(/C(=O)OC)n1ccc2ccc(-c3ccccc3)cc21 [Compound 3, (Z)-methyl 3-methoxy-2-[6-phenylindol-1-yl]acrylate]",2 (6-25% of disease on untreated plants),4,4,4,–,4,4,–
CO/C=C(/C(=O)OC)n1ccc2ccc(Br)cc21 [Compound 7],4,4,4,4,4,4,–,–
CO/C=C(/C(=O)OC)n1ccc2ccc(OC)cc21 [Compound 4],2 (6-25% of disease on untreated plants),1 (26-59% of disease on untreated plants),0 (60-100% of disease on untreated plants),4,3 (trace--5% of disease on untreated plants),4,4,–
"CCOc1ccc2ccn(/C(=C\OC)C(=O)OC)c2c1 [Compound 2, (Z)-methyl 3-methoxy-2-[6-ethoxyindol-1-yl]acrylate]",4,4,4,4,4,4,4,A = Apical damage (Maize): 2 (31-60%); G = Greening effect (Maize): 1 (10-30%); A = Apical damage (Tomato): 3 (61-100%); I = Interligular or internodal length reduction (Tomato): 3 (61-100%); P = Phytotoxicity (Tomato): 2 (11-30%); R = Retardation (Tomato): 3 (61-100%); T = Tillering or side shooting (Tomato): 1 (10-30%)
CO/C=C(/C(=O)OC)n1ccc2ccccc21 [Compound 1],1 (26-59% of disease on untreated plants),0 (60-100% of disease on untreated plants),–,3 (trace--5% of disease on untreated plants),3 (trace--5% of disease on untreated plants),4,3 (trace--5% of disease on untreated plants),"grading of mortality, MI [1]: 0 (less than 50% mortality); grading of mortality, MDk (knockdown) [2]: 0 (less than 50% mortality); grading of mortality, DB [3]: 0 (less than 50% mortality); grading of mortality, CPA [4]: 9 (80-100% mortality); grading of mortality, HV [5]: 0 (less than 50% mortality); I = Interligular or internodal length reduction (Rice): 1 (10-30%); R = Retardation (Rice): 1 (10-30%); grading of mortality, TUa [6]: 9 (80-100% mortality); I = Interligular or internodal length reduction (Apple): 1 (10-30%); R = Retardation (Apple): 1 (10-30%); grading of mortality, TUe [7]: 0 (less than 50% mortality); grading of mortality, NL [8]: 0 (less than 50% mortality); grading of mortality, MP (Myzus persicae (aphids)): 0 (less than 50% mortality); grading of mortality, BG [9]: 0 (less than 50% mortality); grading of mortality, MDa [10]: 0 (less than 50% mortality)"
